# Test results taken from patent US10238670B2, “9-aminomethyl minocycline compounds and methods of use thereof in urinary tract infection (UTI) treatment” (Paratek Pharmaceuticals, Inc., priority 2016, dated 2019).
# Like-named read-outs stand apart in the source and are kept apart here.
# Tests used:
# [1] = complicated skin and skin structure infection; cited from earlier work
# [2] = cited from earlier work
# [3] = test system: E. coli (ATCC 25922) biofilm; test: MBEC assay, activity against established 24 hour biofilm; assay type: cell-based, Escherichia coli; details: 24 hours challenge
# Description: The MBEC™ assay (formerly the Calgary biofilm device; Innovotech Inc., Canada) is a well-established high throughput assay for assessment of anti-biofilm activity of test agents in a 96-well format. Within this assay, the biofilm is formed on the plastic pegs of the plate lid. After inoculated media is introduced to the wells of the 96-well plate, the plate is placed in a shaking incubator to generate the necessary shear force for biofilm growth on the pegs. Following a suitable incubation time, the individual biofilms can be treated with varying concentrations of test agents (challenge plate). After the desired treatment time, the remaining biofilm-associated bacteria are retrieved from the pegs through sonication (recovery plate). Serial dilution and/or plating of the recovered bacterial suspension allow for the quantification of test agents' efficacy against pre-formed biofilms. Additionally, readout of the challenge plate from the biofilm treatment can be used to determine MIC values of test agents. The absence of growth in the recovery plate indicates complete biofilm eradication and the lowest concentration of a test agent that achieves this is designated as the minimum biofilm eradication concentration (MBEC). The MBEC™ assay is also amenable to assess potential synergistic effects of combination treatments, as well as efficacy of test agents in inhibiting or inducing biofilm formation. The MBEC™ plates were inoculated with 10^7 CFU/mL of stationary phase E. coli (ATCC 25922) and incubated for 24 hours to allow formation of a robust biofilm. The individual biofilms formed on the pegs were challenged with varying concentrations of antibiotics for 24 hours, followed by recovery of the surviving bacteria. Bacterial enumeration was performed using a Most Probable Number (MPN) assay (Sutton, Journal of Validation Technology 16 (3): 35-38, 2010, incorporated herein by reference) in a 96-well format.
# S. saprophyticus = test: In vitro activity in urine relative to standard media; assay type: cell-based
# [4] = 14C-Compound 1 excretion and kidney/blood distribution in rats; assay type: in vivo, rat; details: for dose excreted in the urine: IV 5 mg/kg
# Description: In rats, based on ^14C-Compound 1 dosed intravenously, approximately 30% of the dose (5 mg/kg) was excreted in the urine, with 25% excreted in the first 24 hours. The remainder of the dose was excreted into the feces. After IV dosing, the concentration of radioactivity in the kidney (cortex: 12,700 ng/g; medulla: 11,500 ng/g; pelvis: 11,300 ng/g) exceeded the blood concentration (1,570 ng/ml) 5 minutes post dose and at 24 hrs post dose (blood: 57.6 ng/ml; kidney cortex 318 ng/g; kidney medulla: 167 ng/g; kidney pelvis: 161 ng/g).
# E. coli (ATCC 25922) [5] = test: Broth microdilution MIC against planktonic E. coli; assay type: cell-based; details: Escherichia coli, ATCC25922, extrapolated from OD650 plot after 24 hours, read-out: minimum inhibitory concentration (MIC)
# Description: Antimicrobial activity of Compound 1 against E. coli (ATCC 25922) was determined using a standard broth microdilution method (CLSI in Methods for Dilution Antimicrobial Susceptibility Tests for Bacteria That Grow Aerobically, Approved Standard M7-A8, Clinical and Laboratory Standards Institute, Wayne, Pa. (USA), 2011, incorporated herein by reference) with slight modifications.
# Phase 1 studies, safety = assay type: in vivo, human
# Description: In the Phase 1 studies, 536 subjects were exposed to Compound 1 IV or oral formulations. Single IV doses up to 600 mg and single oral doses up to 600 mg have been investigated. Multiple IV doses of 100 mg once daily and 200 mg once daily for up to 14 and 7 consecutive days, respectively, have been investigated.
# P. aeruginosa = test: In vitro MIC (Data from CMI 07); assay type: cell-based; details: N=22
# [6] = 14C-Compound 1 excretion and kidney/blood distribution in rats; assay type: in vivo, rat
# K. pneumoniae FQR = test: In vitro MIC, 2010 surveillance isolates; assay type: cell-based, Klebsiella pneumoniae; details: N=412
# E. coli (ATCC 25922) [7] = details: Macone 2014; cited from earlier work
# human plasma protein = details: cited from earlier work
# protein = details: cited from earlier work
compound,measurement,setting,value
"CN(C)c1cc(CNCC(C)(C)C)c(O)c2c1C[C@H]1C[C@H]3[C@H](N(C)C)C(O)=C(C(N)=O)C(=O)[C@@]3(O)C(O)=C1C2=O [Compound 1, 9-[(2,2-dimethyl-propylamino)-methyl]-minocycline]",clinical efficacy and tolerability,[1],comparable to linezolid
same,peak plasma concentration,[2]; 100 mg IV dose,1.8 mg/L
same,peak plasma concentration,[2]; 300 mg oral dose,0.6 mg/L
same,elimination half-life,[2]; phase 1 studies,approximately 17 hours
same,reduction of total biofilm-associated bacteria,[3]; at around MIC,1-2 log units
same,reduction in bioburden,[3]; at higher concentrations,4-5 log units
same,activity in urine relative to standard media,S. saprophyticus,stable
same,dose excreted in the urine,[4]; first 24 hours,25%
same,dose excreted in the urine,[4]; total,approximately 30%
same,"concentration of radioactivity, blood","[4]; IV, 5 minutes post dose","1,570 ng/ml"
same,"concentration of radioactivity, kidney cortex","[4]; IV, 5 minutes post dose","12,700 ng/g"
same,"concentration of radioactivity, kidney medulla","[4]; IV, 5 minutes post dose","11,500 ng/g"
same,"concentration of radioactivity, kidney cortex","[4]; IV, 24 hrs post dose",318 ng/g
same,"concentration of radioactivity, kidney medulla","[4]; IV, 24 hrs post dose",167 ng/g
same,"concentration of radioactivity, kidney pelvis","[4]; IV, 24 hrs post dose",161 ng/g
same,MIC,E. coli (ATCC 25922) [5],1.13 µg/mL
same,discontinuations due to drug-related adverse events,"Phase 1 studies, safety; all Phase 1 studies, subjects who received multiple doses",no discontinuations due to drug-related adverse events
same,serious adverse events,"Phase 1 studies, safety; multiple p.o. doses of 200 mg and 300 mg once daily for up to 10 consecutive days",without any serious adverse events
same,Cumulative % Inhibition at MIC,P. aeruginosa; MIC 1 μg/ml,0%
same,Cumulative % Inhibition at MIC,P. aeruginosa; MIC 2 μg/ml,0%
same,Cumulative % Inhibition at MIC,P. aeruginosa; MIC 4 μg/ml,0%
same,Cumulative % Inhibition at MIC,P. aeruginosa; MIC 8 μg/ml,0%
same,Cumulative % Inhibition at MIC,P. aeruginosa; MIC 16 μg/ml,9.1%
same,Cumulative % Inhibition at MIC,"P. aeruginosa; MIC ≤0.5 μg/ml, Data from CMI 07",0%
same,Cumulative % Inhibition at MIC,P. aeruginosa; MIC ≥32 μg/ml,100%
same,"concentration of radioactivity, kidney pelvis","[6]; IV, 5 minutes post dose","11,300 ng/g"
same,"concentration of radioactivity, blood","[6]; IV, 24 hrs post dose",57.6 ng/mL
same,"AUCinf, blood",[6]; oral dosing,3030 ng·h/mL
same,"AUCinf, kidney cortex",[6]; oral dosing,"11,000 ng*h/ml"
same,"AUCinf, kidney medulla",[6]; oral dosing,"10,900 ng*h/ml"
same,"AUCinf, kidney pelvis",[6]; oral dosing,"10,500 ng*h/ml"
same,"Cmax, blood",[6]; oral dosing,125 ng/mL
same,"Cmax, kidney cortex",[6]; oral dosing,721 ng/g
same,"Cmax, kidney medulla",[6]; oral dosing,722 ng/g
same,"Cmax, kidney pelvis",[6]; oral dosing,1580 ng/g
same,Cumulative % Inhibition at MIC,K. pneumoniae FQR; MIC 1 μg/ml,15.3%
same,Cumulative % Inhibition at MIC,K. pneumoniae FQR; MIC 2 μg/ml,48.8%
same,Cumulative % Inhibition at MIC,K. pneumoniae FQR; MIC 4 μg/ml,72.6%
same,Cumulative % Inhibition at MIC,K. pneumoniae FQR; MIC 8 μg/ml,86.7%
same,Cumulative % Inhibition at MIC,K. pneumoniae FQR; MIC 16 μg/ml,92.7%
same,Cumulative % Inhibition at MIC,"K. pneumoniae FQR; MIC ≤0.5 μg/ml, listed as head image P00012",1.2%
same,Cumulative % Inhibition at MIC,K. pneumoniae FQR; MIC ≥32 μg/ml,100%
same,reported MIC against E. coli,E. coli (ATCC 25922) [7],0.5 to 2 µg/mL
CN(C)c1cc(NC(=O)CNC(C)(C)C)c(O)c2c1C[C@H]1C[C@H]3[C@H](N(C)C)C(O)=C(C(N)=O)C(=O)[C@@]3(O)C(O)=C1C2=O [Tigecycline],type of plasma protein binding,human plasma protein; binding increases with increasing drug concentrations,"atypical, non-linear protein binding"
same,"human plasma protein binding, Mean",human plasma protein; literature,71-87%
same,protein binding,"protein; 0.1 μg/mL, ultracentrifugation",73%
same,protein binding,"protein; 0.1 μg/mL, ultrafiltration",71%
same,protein binding,"protein; 1.0 μg/mL, ultracentrifugation",79%
same,protein binding,"protein; 1.0 μg/mL, ultrafiltration",87%
same,"protein binding, Ultracentrifugation",protein; Concentration 100 ng/mL,73%
same,"protein binding, Ultrafiltration",protein; Concentration 100 ng/mL,71%
same,"protein binding, Ultracentrifugation","protein; Concentration 1,000 ng/mL",79%
same,"protein binding, Ultrafiltration","protein; Concentration 1,000 ng/mL",87%
